Key:
Assay in all cases: relative viability (nuclei count vs DMSO), 5 days (fraction); higher = more cells survive
[1] = compound: C(C(=O)C(=O)O)Br [Bromopyruvate] + CC(C)C[C@H](NC(=O)[C@H](Cc1ccccc1)NC(=O)c1cnccn1)B(O)O [Bortezomib] (partner 0.002 µM)
Procedure, shortened: (§1)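 After 5 days of treatment, lung cancer cells in 1536-well plates were fixed and stained in a single step (final 0.05% Triton X-100, 1% formaldehyde, 1 ug/ml Hoechst) and their nuclei counted on 4× images. Treatment had been applied by pin tool the day after seeding as one drug alone or as a fixed anchor-drug dose with five library-drug doses (not always all listed) in √10 steps. Relative viability is the nuclei count of treated wells divided by that of vehicle wells, and values are medians of duplicate plates.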

[2] = compound: C(C(=O)C(=O)O)Br [Bromopyruvate] + Cc1nc(Nc2ncc(C(=O)Nc3c(C)cccc3Cl)s2)cc(N2CCN(CCO)CC2)n1 [Dasatinib] (partner 0.075 µM)
Procedure, shortened: as §1

[3] = compound: CC(O)(CS(=O)(=O)c1ccc(F)cc1)C(=O)Nc1ccc(C#N)c(C(F)(F)F)c1 [Bicalutamide] + CC(=O)Nc1cccc(-n2c(=O)n(C3CC3)c(=O)c3c(Nc4ccc(I)cc4F)n(C)c(=O)c(C)c32)c1 [Trametinib] (partner 0.02 µM)
Procedure, shortened: as §1

Bicalutamide + Foretinib = compound: CC(O)(CS(=O)(=O)c1ccc(F)cc1)C(=O)Nc1ccc(C#N)c(C(F)(F)F)c1 [Bicalutamide] + COc1cc2c(Oc3ccc(NC(=O)C4(C(=O)Nc5ccc(F)cc5)CC4)cc3F)ccnc2cc1OCCCN1CCOCC1 [Foretinib] (partner 0.25 µM)
Procedure, shortened: as §1

LOU-NH91 was tested, and the relative viability ([1]; first compound 1 µM) was 0.499, the relative viability ([1]; first compound 3.162 µM) was 0.499 and the relative viability ([1]; first compound 10 µM) was 0.518. The relative viability ([1]; first compound 31.62 µM) was 0.49, the relative viability ([1]; first compound 100 µM) was 0.472 and the relative viability ([2]; first compound 1 µM) was 0.592. It also gave a relative viability ([2]; first compound 3.162 µM) of 0.535, a relative viability ([2]; first compound 10 µM) of 0.61 and a relative viability ([2]; first compound 31.62 µM) of 0.58. The relative viability ([2]; first compound 100 µM) was 0.558, the relative viability ([3]; first compound 0.08 µM) was 0.755 and the relative viability ([3]; first compound 0.253 µM) was 0.724. It also gave a relative viability ([3]; first compound 0.8 µM) of 0.82, a relative viability ([3]; first compound 2.53 µM) of 0.791 and a relative viability (Bicalutamide + Foretinib; first compound 0.08 µM) of 0.969. For the same cell line, the relative viability (Bicalutamide + Foretinib; first compound 0.253 µM) was 0.79, the relative viability (Bicalutamide + Foretinib; first compound 0.8 µM) was 0.963 and the relative viability (Bicalutamide + Foretinib; first compound 2.53 µM) was 0.96.

NCI-H3122 gave a relative viability ([1]; first compound 1 µM) of 1.02, a relative viability ([1]; first compound 3.162 µM) of 1.01 and a relative viability ([1]; first compound 10 µM) of 1.07. The relative viability ([1]; first compound 31.62 µM) was 0.971, the relative viability ([1]; first compound 100 µM) was 1.02 and the relative viability ([2]; first compound 1 µM) was 0.936. The relative viability ([2]; first compound 3.162 µM) was 0.871, the relative viability ([2]; first compound 10 µM) was 1.22 and the relative viability ([2]; first compound 31.62 µM) was 0.765. For the same cell line, the relative viability ([2]; first compound 100 µM) was 0.882, the relative viability ([3]; first compound 0.08 µM) was 0.202 and the relative viability ([3]; first compound 0.253 µM) was 0.241. For the same cell line, the relative viability ([3]; first compound 0.8 µM) was 0.225, the relative viability ([3]; first compound 2.53 µM) was 0.258 and the relative viability (Bicalutamide + Foretinib; first compound 0.08 µM) was 1.02. For the same cell line, the relative viability (Bicalutamide + Foretinib; first compound 0.253 µM) was 0.9, the relative viability (Bicalutamide + Foretinib; first compound 0.8 µM) was 0.996 and the relative viability (Bicalutamide + Foretinib; first compound 2.53 µM) was 1.01.

In the case of LCLC-97TM1, the relative viability ([1]; first compound 1 µM) is reported as 0.957, the relative viability ([1]; first compound 3.162 µM) is reported as 0.625 and the relative viability ([1]; first compound 10 µM) is reported as 0.735. It also gave a relative viability ([1]; first compound 31.62 µM) of 0.573, a relative viability ([1]; first compound 100 µM) of 0.586 and a relative viability ([2]; first compound 1 µM) of 0.74. For the same cell line, the relative viability ([2]; first compound 3.162 µM) was 0.898, the relative viability ([2]; first compound 10 µM) was 0.835 and the relative viability ([2]; first compound 31.62 µM) was 0.763. For the same cell line, the relative viability ([2]; first compound 100 µM) was 0.957, the relative viability ([3]; first compound 0.08 µM) was 0.214 and the relative viability ([3]; first compound 0.253 µM) was 0.177. The relative viability ([3]; first compound 0.8 µM) was 0.212, the relative viability ([3]; first compound 2.53 µM) was 0.188 and the relative viability (Bicalutamide + Foretinib; first compound 0.08 µM) was 0.871. It also gave a relative viability (Bicalutamide + Foretinib; first compound 0.253 µM) of 0.923, a relative viability (Bicalutamide + Foretinib; first compound 0.8 µM) of 1.04 and a relative viability (Bicalutamide + Foretinib; first compound 2.53 µM) of 0.96.

NCI-H647 gave a relative viability ([1]; first compound 1 µM) of 0.93, a relative viability ([1]; first compound 3.162 µM) of 1.01 and a relative viability ([1]; first compound 10 µM) of 1. It also gave a relative viability ([1]; first compound 31.62 µM) of 1.18, a relative viability ([1]; first compound 100 µM) of 0.961 and a relative viability ([2]; first compound 1 µM) of 0.156. The relative viability ([2]; first compound 3.162 µM) was 0.218, the relative viability ([2]; first compound 10 µM) was 0.215 and the relative viability ([2]; first compound 31.62 µM) was 0.187. It also gave a relative viability ([2]; first compound 100 µM) of 0.169, a relative viability ([3]; first compound 0.08 µM) of 0.482 and a relative viability ([3]; first compound 0.253 µM) of 0.429. For the same cell line, the relative viability ([3]; first compound 0.8 µM) was 0.721, the relative viability ([3]; first compound 2.53 µM) was 0.414 and the relative viability (Bicalutamide + Foretinib; first compound 0.08 µM) was 1.08. The relative viability (Bicalutamide + Foretinib; first compound 0.253 µM) was 1.16, the relative viability (Bicalutamide + Foretinib; first compound 0.8 µM) was 1.23 and the relative viability (Bicalutamide + Foretinib; first compound 2.53 µM) was 1.14.

In the case of NCI-H838, the relative viability ([1]; first compound 1 µM) is reported as 0.915, the relative viability ([1]; first compound 3.162 µM) is reported as 0.886 and the relative viability ([1]; first compound 10 µM) is reported as 0.773. For the same cell line, the relative viability ([1]; first compound 31.62 µM) was 0.786, the relative viability ([1]; first compound 100 µM) was 0.763 and the relative viability ([2]; first compound 1 µM) was 0.325. The relative viability ([2]; first compound 3.162 µM) was 0.277, the relative viability ([2]; first compound 10 µM) was 0.208 and the relative viability ([2]; first compound 31.62 µM) was 0.302. It also gave a relative viability ([2]; first compound 100 µM) of 0.264, a relative viability ([3]; first compound 0.08 µM) of 0.553 and a relative viability ([3]; first compound 0.253 µM) of 0.419. The relative viability ([3]; first compound 0.8 µM) was 0.661, the relative viability ([3]; first compound 2.53 µM) was 0.293 and the relative viability (Bicalutamide + Foretinib; first compound 0.08 µM) was 0.994. For the same cell line, the relative viability (Bicalutamide + Foretinib; first compound 0.253 µM) was 0.963, the relative viability (Bicalutamide + Foretinib; first compound 0.8 µM) was 1.08 and the relative viability (Bicalutamide + Foretinib; first compound 2.53 µM) was 0.928.

In the case of H3255, the relative viability ([1]; first compound 1 µM) is reported as 0.877, the relative viability ([1]; first compound 3.162 µM) is reported as 0.723 and the relative viability ([1]; first compound 10 µM) is reported as 0.981. The relative viability ([1]; first compound 31.62 µM) was 0.719, the relative viability ([1]; first compound 100 µM) was 0.892 and the relative viability ([2]; first compound 1 µM) was 0.422. For the same cell line, the relative viability ([2]; first compound 3.162 µM) was 0.361, the relative viability ([2]; first compound 10 µM) was 0.347 and the relative viability ([2]; first compound 31.62 µM) was 0.344. The relative viability ([2]; first compound 100 µM) was 0.488, the relative viability ([3]; first compound 0.08 µM) was 0.666 and the relative viability ([3]; first compound 0.253 µM) was 0.567. The relative viability ([3]; first compound 0.8 µM) was 0.717, the relative viability ([3]; first compound 2.53 µM) was 0.569 and the relative viability (Bicalutamide + Foretinib; first compound 0.08 µM) was 0.901. It also gave a relative viability (Bicalutamide + Foretinib; first compound 0.253 µM) of 0.827 and a relative viability (Bicalutamide + Foretinib; first compound 2.53 µM) of 0.84.

With NCI-H1437 the relative viability ([1]; first compound 1 µM) was 0.546, the relative viability ([1]; first compound 3.162 µM) was 0.458 and the relative viability ([1]; first compound 10 µM) was 0.485. The relative viability ([1]; first compound 31.62 µM) was 0.405, the relative viability ([1]; first compound 100 µM) was 0.626 and the relative viability ([2]; first compound 1 µM) was 0.491. The relative viability ([2]; first compound 3.162 µM) was 0.493, the relative viability ([2]; first compound 10 µM) was 0.427 and the relative viability ([2]; first compound 31.62 µM) was 0.317. The relative viability ([2]; first compound 100 µM) was 0.415, the relative viability ([3]; first compound 0.08 µM) was 0.598 and the relative viability ([3]; first compound 0.253 µM) was 0.475. For the same cell line, the relative viability ([3]; first compound 0.8 µM) was 0.612, the relative viability ([3]; first compound 2.53 µM) was 0.476 and the relative viability (Bicalutamide + Foretinib; first compound 0.08 µM) was 1.28. It also gave a relative viability (Bicalutamide + Foretinib; first compound 0.253 µM) of 1.29, a relative viability (Bicalutamide + Foretinib; first compound 0.8 µM) of 1.24 and a relative viability (Bicalutamide + Foretinib; first compound 2.53 µM) of 1.27.

For LU99A, the relative viability ([1]; first compound 1 µM) was 1.18, the relative viability ([1]; first compound 3.162 µM) was 1.11 and the relative viability ([1]; first compound 10 µM) was 1.05. The relative viability ([1]; first compound 31.62 µM) was 1.05, the relative viability ([1]; first compound 100 µM) was 1.26 and the relative viability ([2]; first compound 1 µM) was 0.515. The relative viability ([2]; first compound 3.162 µM) was 0.568, the relative viability ([2]; first compound 10 µM) was 0.575 and the relative viability ([2]; first compound 31.62 µM) was 0.552. It also gave a relative viability ([2]; first compound 100 µM) of 0.534, a relative viability ([3]; first compound 0.08 µM) of 0.529 and a relative viability ([3]; first compound 0.253 µM) of 0.445. The relative viability ([3]; first compound 0.8 µM) was 0.6, the relative viability ([3]; first compound 2.53 µM) was 0.495 and the relative viability (Bicalutamide + Foretinib; first compound 0.08 µM) was 0.773. The relative viability (Bicalutamide + Foretinib; first compound 0.253 µM) was 0.815, the relative viability (Bicalutamide + Foretinib; first compound 0.8 µM) was 0.892 and the relative viability (Bicalutamide + Foretinib; first compound 2.53 µM) was 0.578.

HCC-827 showed a relative viability ([1]; first compound 1 µM) of 1.05, a relative viability ([1]; first compound 3.162 µM) of 1.07 and a relative viability ([1]; first compound 10 µM) of 1.03. For the same cell line, the relative viability ([1]; first compound 31.62 µM) was 1.08, the relative viability ([1]; first compound 100 µM) was 1.05 and the relative viability ([2]; first compound 1 µM) was 0.249. It also gave a relative viability ([2]; first compound 3.162 µM) of 0.366, a relative viability ([2]; first compound 10 µM) of 0.329 and a relative viability ([2]; first compound 31.62 µM) of 0.326. The relative viability ([2]; first compound 100 µM) was 0.317, the relative viability ([3]; first compound 0.08 µM) was 0.58 and the relative viability ([3]; first compound 0.253 µM) was 0.459. The relative viability ([3]; first compound 0.8 µM) was 0.552, the relative viability ([3]; first compound 2.53 µM) was 0.547 and the relative viability (Bicalutamide + Foretinib; first compound 0.08 µM) was 1.09. The relative viability (Bicalutamide + Foretinib; first compound 0.253 µM) was 0.881, the relative viability (Bicalutamide + Foretinib; first compound 0.8 µM) was 1.04 and the relative viability (Bicalutamide + Foretinib; first compound 2.53 µM) was 1.01.

Source: the supplement of paper PMC10307832
